Experimental data reported in EP3714904B1, “IMINODIACETIC ACID SUBSTITUTED CYCLODEXTRINS AS POTENTIATORS OF BETA-LACTAM ANTIBIOTICS” (NATIONAL CENTER FOR SCIENTIFIC RESEARCH "DEMOKRITOS" (NCSRD), priority 2019, dated 2020).
Read-outs that look alike come from different tables or passages of the source.

Legend:
Assay in all cases: MIC of β-lactams alone or with 50 µM IDACYD against clinical isolates
Type in all cases: cell-based
Klebsiella pneumoniae = settings: for Imipenem + α-IDACYD MIC / Meropenem + α-IDACYD MIC: IDACYD 50 μM; for MIC: Klebsiella pneumoniae, alone
Experimental: Further the in-vitro inhibitory activity of IDACYDs was tested against highly resistant pathogens. […] Table 2: Collection of clinical isolates used for in-vitro evaluation

Acinetobacter baumannii = settings: Acinetobacter baumannii, alone, read-out: Imipenem MIC
Experimental: (§1) Further the in-vitro inhibitory activity of IDACYDs was tested against highly resistant pathogens. Tables 3, 4 and 5 show the effect of IDACYDs using a collection of 36 highly resistant Gram negative strains (Table 2, Kirby-Bauer disc diffusion method) producing NDM, VIM and IMP type MBLs as well as 6 isolates expressing serine beta-lactamases (ESBLs, AmpCs). […] Clinical isolates co-expressing ESBLs and/or AmpC β-lactamases along with MBLs where re-sensitized to both imipenem and meropenem, as expected. Table 2: Collection of clinical isolates used for in-vitro evaluation

Proteus mirabilis = settings: Proteus mirabilis, alone
Experimental: as §1

Serratia marcescens = settings: Serratia marcescens, isolate EUG-815 (VIM, CMY), alone
Experimental: as §1

Enterobacter gergoviae = settings: Pluralibacter gergoviae, alone, read-out: Imipenem MIC
Experimental: as §1

Providencia stuartii = settings: Providencia stuartii, alone
Experimental: as §1

Escherichia coli = settings: Escherichia coli, alone
Experimental: as §1

## CO[C@@H]1[C@@H](OC)[C@H]2O[C@H]3[C@H](OC)[C@@H](OC)[C@@H](O[C@H]4[C@H](OC)[C@@H](OC)[C@@H](O[C@H]5[C@H](OC)[C@@H](OC)[C@@H](O[C@H]6[C@H](OC)[C@@H](OC)[C@@H](O[C@H]7[C@H](OC)[C@@H](OC)[C@@H](O[C@@H]1[C@@H](CN(CC(=O)O)CC(=O)O)O2)O[C@@H]7CN(CC(=O)O)CC(=O)O)O[C@@H]6CN(CC(=O)O)CC(=O)O)O[C@@H]5CN(CC(=O)O)CC(=O)O)O[C@@H]4CN(CC(=O)O)CC(=O)O)O[C@@H]3CN(CC(=O)O)CC(=O)O [α-IDACYD]
Klebsiella pneumoniae; Kpn ESDY 5742 (IMP-1)
  Imipenem + α-IDACYD MIC: <0.25 µg/mL
  Meropenem + α-IDACYD MIC: <0.25 µg/mL
Klebsiella pneumoniae; Kpn LA 34 (VIM-1 CMY)
  Imipenem + α-IDACYD MIC: <0.5 µg/mL
  Meropenem + α-IDACYD MIC: <0.5 µg/mL
Klebsiella pneumoniae; Kpn LA 82/16 (VIM-1)
  Imipenem + α-IDACYD MIC: <0.25 µg/mL
  Meropenem + α-IDACYD MIC: <0.25 µg/mL
Klebsiella pneumoniae; Kpn LA 109/16 (VIM-1)
  Imipenem + α-IDACYD MIC: <0.25 µg/mL
  Meropenem + α-IDACYD MIC: <0.25 µg/mL
Klebsiella pneumoniae; Kpn LA419/16 (NDM-1)
  Imipenem + α-IDACYD MIC: <0.25 µg/mL
  Meropenem + α-IDACYD MIC: <0.25 µg/mL

## C[C@@H](O)[C@H]1C(=O)N2C(C(=O)O)=C(SCCN=CN)C[C@H]12 [Imipenem, reference compound]
Klebsiella pneumoniae; Table 5, Kpn ESDY 5742 (IMP-1), read-out: Imipenem MIC
  MIC: 8 µg/mL
Klebsiella pneumoniae; Table 5, Kpn LA 26 (NDM-1), read-out: Imipenem MIC
  MIC: 16 µg/mL
Klebsiella pneumoniae; Table 5, Kpn LA 34 (VIM-1 CMY), read-out: Imipenem MIC
  MIC: 16 µg/mL
Klebsiella pneumoniae; Table 5, Kpn LA 82/16 (VIM-1), read-out: Imipenem MIC
  MIC: 64 µg/mL
Klebsiella pneumoniae; Table 5, Kpn LA 109/16 (VIM-1), read-out: Imipenem MIC
  MIC: 16 µg/mL
Klebsiella pneumoniae; Table 5, Kpn LA419/16 (NDM-1), read-out: Imipenem MIC
  MIC: 8 µg/mL
Klebsiella pneumoniae; Table 5, Kpn LAR 37II/15 (NDM-1, VIM-1, CTXM), read-out: Imipenem MIC
  MIC: 64 µg/mL
Klebsiella pneumoniae; isolate 6/100 (VIM), read-out: Imipenem MIC
  MIC: 32 µg/mL
Klebsiella pneumoniae; isolate 2489 (NDM), read-out: Imipenem MIC
  MIC: 32 µg/mL
Klebsiella pneumoniae; isolate 2685 (VIM, CMY, CTXM), read-out: Imipenem MIC
  MIC: 32 µg/mL
Klebsiella pneumoniae; isolate ALX-47 (OXA-48,CTX-M), read-out: Imipenem MIC
  MIC: 4 µg/mL
Klebsiella pneumoniae; isolate ESDY-1780 (VIM, KPC), read-out: Imipenem MIC
  MIC: 16 µg/mL
Klebsiella pneumoniae; isolate ESDY-2681 (VIM-27), read-out: Imipenem MIC
  MIC: 16 µg/mL
Klebsiella pneumoniae; isolate ESDY-5742 (IMP), read-out: Imipenem MIC
  MIC: 8 µg/mL
Klebsiella pneumoniae; isolate EY-20S (CMY, SHV), read-out: Imipenem MIC
  MIC: 2 µg/mL
Klebsiella pneumoniae; isolate IT-17829 (CTXM, SHV), read-out: Imipenem MIC
  MIC: 1 µg/mL
Klebsiella pneumoniae; isolate L078/11 (KPC), read-out: Imipenem MIC
  MIC: 32 µg/mL
Klebsiella pneumoniae; isolate LA-26 (NDM), read-out: Imipenem MIC
  MIC: 16 µg/mL
Klebsiella pneumoniae; isolate LA-27 (NDM, CTXM), read-out: Imipenem MIC
  MIC: 8 µg/mL
Klebsiella pneumoniae; isolate LA-28 (NDM, CTXM), read-out: Imipenem MIC
  MIC: 8 µg/mL
Klebsiella pneumoniae; isolate LA-34 (VIM, CMY), first entry of Table 3, read-out: Imipenem MIC
  MIC: 32 µg/mL
Klebsiella pneumoniae; isolate LA-34 (VIM, CMY), second entry of Table 3, read-out: Imipenem MIC
  MIC: 32 µg/mL
Klebsiella pneumoniae; isolate LA-38 (NDM), read-out: Imipenem MIC
  MIC: 8 µg/mL
Klebsiella pneumoniae; isolate LA-82/16 (VIM, SHV), read-out: Imipenem MIC
  MIC: 8 µg/mL
Klebsiella pneumoniae; isolate LA-109/16 (VIM, CTXM), read-out: Imipenem MIC
  MIC: 16 µg/mL
Klebsiella pneumoniae; isolate LA-419/16 (NDM,CTXM), read-out: Imipenem MIC
  MIC: 4 µg/mL
Klebsiella pneumoniae; isolate LA-470/17 (NDM), read-out: Imipenem MIC
  MIC: 8 µg/mL
Klebsiella pneumoniae; isolate LAR-26I/15 (NDM, VIM, CTXM), read-out: Imipenem MIC
  MIC: 16 µg/mL
Klebsiella pneumoniae; isolate LAR-37II/15 (NDM, VIM, CTXM), read-out: Imipenem MIC
  MIC: 64 µg/mL
Klebsiella pneumoniae; isolate LAR-38I/15 (VIM, NDM, CTXM), read-out: Imipenem MIC
  MIC: 4 µg/mL
Klebsiella pneumoniae; isolate LAR-40II/15 (KPC), read-out: Imipenem MIC
  MIC: 16 µg/mL
Klebsiella pneumoniae; isolate LAR-2873 (VIM-12), read-out: Imipenem MIC
  MIC: 4 µg/mL
Klebsiella pneumoniae; isolate LAR-7547 (NDM, VIM, CTXM), read-out: Imipenem MIC
  MIC: 64 µg/mL
Klebsiella pneumoniae; isolate SEC-2 (VIM), read-out: Imipenem MIC
  MIC: 32 µg/mL
Klebsiella pneumoniae; isolate SEC-4 (VIM), read-out: Imipenem MIC
  MIC: 64 µg/mL
Klebsiella pneumoniae; isolate TZAN-59 (β-lactamase: None), read-out: Imipenem MIC
  MIC: 1 µg/mL
Klebsiella pneumoniae; isolate UoA 12/227 (VIM), read-out: Imipenem MIC
  MIC: 8 µg/mL
Klebsiella pneumoniae; isolate UoA 1995 (VIM), read-out: Imipenem MIC
  MIC: 8 µg/mL
Acinetobacter baumannii; isolate TZAN-40 (VIM, OXA-58)
  MIC: 4 µg/mL
Acinetobacter baumannii; isolate TZAN-42 (VIM, OXA-58)
  MIC: 8 µg/mL
Proteus mirabilis; Table 5, Pr m ESDY 15315 (VIM-1, CMY), read-out: Imipenem MIC
  MIC: 16 µg/mL
Proteus mirabilis; isolate ALX-13 (VIM, VEB), read-out: Imipenem MIC
  MIC: 8 µg/mL
Proteus mirabilis; isolate ESDY-17 (VIM, CMY), read-out: Imipenem MIC
  MIC: 4 µg/mL
Proteus mirabilis; isolate ESDY-15184 (VIM, CMY), read-out: Imipenem MIC
  MIC: 8 µg/mL
Proteus mirabilis; isolate ESDY-15315 (VIM, CMY), read-out: Imipenem MIC
  MIC: 16 µg/mL
Serratia marcescens; read-out: Imipenem MIC
  MIC: 16 µg/mL
Enterobacter gergoviae; isolate AK-5227 (VIM, CMY)
  MIC: 8 µg/mL
Enterobacter gergoviae; isolate AK-5240 (VIM, CMY)
  MIC: 8 µg/mL
Providencia stuartii; isolate ALX- 21 (VIM, VEB), read-out: Imipenem MIC
  MIC: 8 µg/mL
Providencia stuartii; isolate ALX-27 (VIM), read-out: Imipenem MIC
  MIC: 16 µg/mL
Providencia stuartii; isolate ESDY-4559 (VIM), read-out: Imipenem MIC
  MIC: 4 µg/mL
Providencia stuartii; isolate ESDY-4563 (VIM, VEB), read-out: Imipenem MIC
  MIC: 4 µg/mL
Escherichia coli; isolate TZAN-116 (VIM), read-out: Imipenem MIC
  MIC: 4 µg/mL
Escherichia coli; isolate TZAN-541 (VIM), read-out: Imipenem MIC
  MIC: 4 µg/mL

## CC(C)(O/N=C(\C(=O)N[C@@H]1C(=O)N2C(C(=O)[O-])=C(C[n+]3ccccc3)CS[C@H]12)c1csc(N)n1)C(=O)O [Ceftazidime, reference compound]
Klebsiella pneumoniae; isolate ALX-47 (OXA-48,CTX-M), read-out: Ceftazidime MIC
  MIC: > 256 µg/mL
Klebsiella pneumoniae; isolate ESDY-5742 (IMP), read-out: Ceftazidime MIC
  MIC: > 256 µg/mL
Klebsiella pneumoniae; isolate LA-28 (NDM, CTXM), read-out: Ceftazidime MIC
  MIC: > 256 µg/mL
Klebsiella pneumoniae; isolate LA-82/16 (VIM, SHV), read-out: Ceftazidime MIC
  MIC: > 256 µg/mL
Klebsiella pneumoniae; isolate LA-109/16 (VIM, CTXM), read-out: Ceftazidime MIC
  MIC: > 256 µg/mL
Klebsiella pneumoniae; isolate LAR-4011/15, read-out: Ceftazidime MIC
  MIC: 32 µg/mL
Klebsiella pneumoniae; isolate UoA 12/227 (VIM), read-out: Ceftazidime MIC
  MIC: > 256 µg/mL
Klebsiella pneumoniae; isolate UoA 1995 (VIM), read-out: Ceftazidime MIC
  MIC: > 256 µg/mL
Proteus mirabilis; isolate ESDY-15184 (VIM, CMY), read-out: Ceftazidime MIC
  MIC: > 256 µg/mL
Serratia marcescens; read-out: Ceftazidime MIC
  MIC: > 256 µg/mL
Providencia stuartii; isolate ALX- 21 (VIM, VEB), read-out: Ceftazidime MIC
  MIC: 128 µg/mL
Providencia stuartii; isolate ESDY-4559 (VIM), read-out: Ceftazidime MIC
  MIC: 8 µg/mL
Escherichia coli; isolate TZAN-116 (VIM), read-out: Ceftazidime MIC
  MIC: > 256 µg/mL
